According to patent US20230048349A1, “RECIRCULATING AQUACULTURE SYSTEM AND METHODS THEREOF” (THE TEXAS A&M UNIVERSITY SYSTEM, priority 2021, published 2023):
Converted amounts (≈) assume the structure as drawn.

What was measured:
[1] = system: Aeromonas hydrophila; test: Growth inhibition test in liquid medium (OD600); assay type: cell-based; conditions: Aeromonas hydrophila, A. hydrophila
Experimental: (§1) These compounds were used to assess the antimicrobial efficacy of PHB and chitosan under the best scenario. Various concentrations of PHB intermediates (5-125 mM), COS (0.2-3 mM), or mixtures of 3-HB+COS (i.e., Mixture 1 (4 mM 3-HB+0.1 mM COS), Mixture 2 (12 mM 3-HB+0.3 mM COS), Mixture 3 (24 mM 3-HB+0.6 mM COS), and Mixture 4 (60 mM 3-HB+1.5 mM COS)) were used based on previously in vitro antimicrobial studies using PHB or chitosan. For S. agalactiae and RHA1, tryptic soy broth (TSB) and Reasoner's 2A (R2A) media were used, respectively. The pH of all growth mediums (i.e., LB, TSB, or R2A) was adjusted to 6.0 based on the typical pH value found in aquatic animals' gut and the optimized antimicrobial activity of PHB. The culture tubes were inoculated with 2% v/v of the pre-grown strains (optical density (OD600) of 1.0) and incubated at 30° C. under 150 rpm. The bacterial growth was determined by absorbance at OD600. The growth of tested strains in the absence of PHB or chitosan intermediates were used as controls. The inhibition efficiency (%) was calculated using Eq. (1): […]
(§2) where ODcontrol and ODsample refer to the highest optical densities of the growth curves for the controls and samples, respectively.

[2] = system: Bacillus megaterium; test: Growth inhibition test in liquid medium (OD600); assay type: cell-based; conditions: Priestia megaterium, B. megaterium
Experimental: as §1, §2

[3] = system: Escherichia coli; test: Growth inhibition test in liquid medium (OD600); assay type: cell-based; conditions: Escherichia coli, E. coli
Experimental: as §1, §2

[4] = system: Rhodococcus jostii RHA1; test: Growth inhibition test in liquid medium (OD600); assay type: cell-based; conditions: R. jostii RHA1
Experimental: as §1, §2

[5] = system: Streptococcus agalactiae; test: Growth inhibition test in liquid medium (OD600); assay type: cell-based; conditions: Streptococcus agalactiae, S. agalactide
Experimental: as §1, §2

[6] = system: Vibrio campbellii; test: Growth inhibition test in liquid medium (OD600); assay type: cell-based; conditions: Vibrio campbellii
Experimental: as §1, §2

[7] = system: V. campbellii and A. hydrophila; test: Growth inhibition test, ranges stated over two G− pathogens (Example 8); assay type: cell-based, Vibrio campbellii; Aeromonas hydrophila; conditions: range over V. campbellii and A. hydrophila
Experimental: as §1, §2

[8] = system: V. campbellii and A. hydrophila; test: Growth inhibition test of SCFAs and MCFAs, ranges over two G− pathogens (Example 15); assay type: cell-based, Vibrio campbellii; Aeromonas hydrophila; conditions: range over V. campbellii and A. hydrophila; LB pH 6
Experimental: (§3) Growth Inhibition Tests: Antipathogenic Properties of SCFAs and MCFAs. Growth inhibition tests to measure optical density (OD600) and calculate % inhibition efficiencies, minimum, and median inhibitory concentrations (MIC and IC50) were conducted as described previously. […] The PHA intermediates (SCFAs and MCFAs) are water-soluble, representing the PHA degradation products in the gastrointestinal tract of aquatic animals, allowing to assess the antipathogenic efficacy of PHA under the best scenario. The culture tubes were incubated at 30° C. under 150 rpm. The growths of tested strains in the absence of PHA intermediates were used as controls.

[9] = system: S. agalactiae; test: Growth inhibition test of SCFAs and MCFAs (Example 15); assay type: cell-based, Streptococcus agalactiae; conditions: Streptococcus agalactiae; S. agalactiae
Experimental: as §3

[10] = system: Vibrio-challenged Artemia; test: Artemia pathogen challenge test (Example 17); assay type: in vivo, Artemia franciscana; conditions: after three days; supplement 1 g/L; V. campbellii 10^8 cells/ml
Experimental: The pathogen challenge tests were designed to determine the effects of individual supplements on the survival of Vibrio-challenged Artemia. The pathogen challenge tests were conducted as described in the starvation tests, except that Artemia cultures (one day old) with each of the abovementioned supplements (1 g/L) were exposed to a lethal dose (10^8 cells/ml) of live V. campbellii as determined previously. In all treatments, 250 mg/L of yeast was added initially as a feed. Unchallenged and Vibrio-challenged Artemia were used as negative and positive controls, respectively. The survival of Artemia was monitored daily for three days.

[11] = 5 mM, read-out: Inhibition Efficiency (%)
[12] = 25 mM, read-out: Inhibition Efficiency (%)
[13] = 50 mM, read-out: Inhibition Efficiency (%)
[14] = 125 mM, read-out: Inhibition Efficiency (%)
[15] = read-out: Inhibition Efficiency (%)

CCCC(=O)O [Butyrate, butyrate]
inhibition at 5000 µM [1, 11]: 0.8 ± 0.22% | inhibition at 25000 µM [1, 12]: 12.7 ± 1.8% | inhibition at 50000 µM [1, 13]: 72.4 ± 5.4% | inhibition at 125000 µM [1, 14]: 100% | IC50 ([1]; 4-parameter logistic fit): 39.7 mM | inhibition at 5000 µM [2, 11]: -5.8 ± 1.74% | inhibition at 25000 µM [2, 12]: 15.5 ± 1.56% | inhibition at 50000 µM [2, 13]: 100% | inhibition at 125000 µM [2, 14]: 100% | IC50 ([2]; 4-parameter logistic fit, read-out: IC50): 26.2 mM | MIC ([2]; pH 6.0, 30° C., read-out: MIC): 53 mM (≈ 4670 µg/mL) | inhibition at 5000 µM [3, 11]: 5 ± 0.89% | inhibition at 25000 µM [3, 12]: 10.7 ± 12% | inhibition at 50000 µM [3, 13]: 23 ± 6.24% | inhibition at 125000 µM [3, 14]: 71.1 ± 8.25% | IC50 ([3]; 4-parameter logistic fit): 61.2 mM | IC50 ([4]; 4-parameter logistic fit): N.I. | MIC ([4]; pH 6.0, 30° C.): N.I. | inhibition at 5000 µM ([4]; Rhodococcus jostii, 5 mM, read-out: Inhibition Efficiency (%)): -25.2 ± 4.93% | inhibition at 25000 µM ([4]; Rhodococcus jostii, 25 mM, read-out: Inhibition Efficiency (%)): -70.8 ± 2.65% | inhibition at 50000 µM ([4]; Rhodococcus jostii, 50 mM, read-out: Inhibition Efficiency (%)): -92.2 ± 21.6% | inhibition at 125000 µM ([4]; Rhodococcus jostii, 125 mM, read-out: Inhibition Efficiency (%)): 100% | inhibition at 5000 µM [5, 11]: 0.75 ± 0.01% | inhibition at 25000 µM [5, 12]: 0.43 ± 0.15% | inhibition at 50000 µM [5, 13]: 10.2 ± 1.83% | inhibition at 125000 µM [5, 14]: 100% | IC50 ([5]; 4-parameter logistic fit): 83.4 mM | IC50 [6]: 3.82 mM | MIC ([6]; pH 6): 25.7 mM (≈ 2260 µg/mL) | inhibition at 5000 µM [6, 15]: 9.14 ± 8.9% | inhibition at 25000 µM [6, 15]: 100% | inhibition at 50000 µM [6, 15]: 100% | inhibition at 125000 µM [6, 15]: 100% | IC50 [7]: 5.8 to 39.7 mM | IC50 [8]: 8.97 to 30.9 mM | IC50 [9]: 57.5 mM | survival of Vibrio-challenged Artemia [10]: 10%
